Assay results as given in ChEMBL document CHEMBL1201862, “PubChem BioAssay data set” (2004).
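These data come from cells grown in 96-well plates and exposed to compound for 48 hours at five concentrations. Abbreviation: GI50, concentration required for 50% inhibition of growth.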 Activity calls are given as the source filed them. Rule as the data show it: active = GI50 up to about 1.1 µM and inactive = higher.

Key:
Test in all cases: NCI tumour cell line growth inhibition, 48 h
786-0 = test system: 786-0
A549 = test system: A549
ACHN = test system: ACHN
CCRF-CEM = test system: CCRF-CEM
DMS-114 = test system: DMS-114
EKVX = test system: EKVX
KM-20L2 = test system: KM-20L2
M14 = test system: M14
OVCAR-4 = test system: OVCAR-4
SF-268 = test system: SF-268
SK-MEL-28 = test system: SK-MEL-28
SK-OV-3 = test system: SK-OV-3
SW-620 = test system: SW-620
U-251 = test system: U-251
RXF 393 = test system: RXF 393
SK-MEL-2 = test system: SK-MEL-2
BT-549 = test system: BT-549
DU-145 = test system: DU-145
MDA-MB-435 = test system: MDA-MB-435
PC-3 = test system: PC-3

Row | Structure (SMILES) | GI50 (786-0) | GI50 (A549) | GI50 (ACHN) | GI50 (CCRF-CEM) | GI50 (DMS-114) | GI50 (EKVX) | GI50 (KM-20L2) | GI50 (M14) | GI50 (OVCAR-4) | GI50 (SF-268) | GI50 (SK-MEL-28) | GI50 (SK-OV-3) | GI50 (SW-620) | GI50 (U-251) | GI50 (RXF 393) | GI50 (SK-MEL-2) | GI50 (BT-549) | GI50 (DU-145) | GI50 (MDA-MB-435) | GI50 (PC-3)
1 | CC(C)=CC(=O)N1CCN(C(=O)C=C(C)C)CC1 | > 100 µM (inactive) | > 100 µM (inactive) | > 100 µM (inactive) | > 100 µM (inactive) | > 100 µM (inactive) | > 100 µM (inactive) | > 100 µM (inactive) | > 100 µM (inactive) | > 100 µM (inactive) | > 100 µM (inactive) | > 100 µM (inactive) | > 100 µM (inactive) | > 100 µM (inactive) | > 100 µM (inactive) |  |  |  |  |  | 
2 | CC(=O)NNc1nc(C)c(C(/C=C/c2ccc(Cl)cc2)=N\NS(=O)(=O)c2ccc(C)cc2)s1 | > 100 µM (inactive) | > 100 µM (inactive) | > 100 µM (inactive) | > 100 µM (inactive) |  | > 100 µM (inactive) | > 100 µM (inactive) | > 100 µM (inactive) | > 100 µM (inactive) | > 100 µM (inactive) | > 100 µM (inactive) | > 100 µM (inactive) | > 100 µM (inactive) | > 100 µM (inactive) | > 100 µM (inactive) | > 100 µM (inactive) |  |  |  | 
3 | O=C(c1ccccc1)c1c(CC(O)c2ccccc2)n(C(=O)c2ccccc2)c2ccccc12 (configuration not stated) | > 100 µM (inactive) | 31.6 µM (inactive) | 34.4 µM (inactive) | 35.8 µM (inactive) | 28 µM (inactive) |  | 55.8 µM (inactive) | 33 µM (inactive) | 35.5 µM (inactive) | 43.5 µM (inactive) | 95.1 µM (inactive) |  | 50.7 µM (inactive) | 36.1 µM (inactive) |  | 36.5 µM (inactive) |  |  |  | 
4 | Oc1cc(-c2ccccn2)nc2cc(F)ccc12 | > 100 µM (inactive) | 46 µM (inactive) | > 100 µM (inactive) |  |  | 42.9 µM (inactive) | > 100 µM (inactive) | 81.1 µM (inactive) | > 100 µM (inactive) |  | > 100 µM (inactive) | > 100 µM (inactive) | 36.6 µM (inactive) |  | > 100 µM (inactive) |  |  |  |  | 
5 | CCOC(=O)CCc1c(C)c2c(OC)cc(OC)cc2oc1=O | 34.1 µM (inactive) | > 100 µM (inactive) | 42.4 µM (inactive) |  |  | 54.7 µM (inactive) | > 100 µM (inactive) | > 100 µM (inactive) | > 100 µM (inactive) | 34.4 µM (inactive) | > 100 µM (inactive) |  | > 100 µM (inactive) | > 100 µM (inactive) | 33.9 µM (inactive) | > 100 µM (inactive) |  |  |  | 
6 | CC1=C(C(=O)O)N2C(=O)[C@@H](NC(=O)C(c3ccc(O)cc3)N3CSC(=S)N(C(C)C)C3)C2SC1 (some centres not stated) | > 100 µM (inactive) | > 100 µM (inactive) | > 100 µM (inactive) | 63.8 µM (inactive) | > 100 µM (inactive) | > 100 µM (inactive) | > 100 µM (inactive) | > 100 µM (inactive) | > 100 µM (inactive) | > 100 µM (inactive) | > 100 µM (inactive) | > 100 µM (inactive) |  | > 100 µM (inactive) |  | > 100 µM (inactive) |  |  |  | 
7 | COC(=O)[C@]1(C)CCC[C@@]2(C)C1CCC1=CC3(C(C)C)CCC12OO3 (some centres not stated) | 85.3 µM (inactive) | 44 µM (inactive) | 63.4 µM (inactive) | 31.2 µM (inactive) |  | 90.6 µM (inactive) | 94 µM (inactive) | 74 µM (inactive) | 51.3 µM (inactive) | > 100 µM (inactive) |  | > 100 µM (inactive) | > 100 µM (inactive) | > 100 µM (inactive) |  | 46.9 µM (inactive) |  |  |  | 
8 | O=C(c1ccccc1)c1cccc(C(=O)c2ccccc2)c1 | > 100 µM (inactive) | > 100 µM (inactive) | > 100 µM (inactive) | 63.8 µM (inactive) | 43.4 µM (inactive) | > 100 µM (inactive) |  | > 100 µM (inactive) | > 100 µM (inactive) | > 100 µM (inactive) | > 100 µM (inactive) | > 100 µM (inactive) | > 100 µM (inactive) | > 100 µM (inactive) | 76.4 µM (inactive) | > 100 µM (inactive) |  |  |  | 
9 | CN(C)CC/C(=N\Nc1ccc(Cl)c(Cl)c1)c1ccccc1 | 1.71 µM (inactive) | 1.96 µM (inactive) | 1.69 µM (inactive) | 2.11 µM (inactive) | 1.83 µM (inactive) | 1.82 µM (inactive) | 1.74 µM (inactive) |  | 2.58 µM (inactive) | 1.79 µM (inactive) | 2.52 µM (inactive) | 3.72 µM (inactive) | 1.72 µM (inactive) | 1.78 µM (inactive) | 2.55 µM (inactive) |  |  |  |  | 
10 | c1ccc(-c2ccc(-c3ccc(C4=NCCN4)cc3)o2)cc1 | 1.68 µM (inactive) | 2.64 µM (inactive) | 2.95 µM (inactive) | 1.56 µM (inactive) |  | 3.37 µM (inactive) |  | 1.68 µM (inactive) | 6.11 µM (inactive) | 2.8 µM (inactive) | 1.8 µM (inactive) | 5.36 µM (inactive) | 2 µM (inactive) | 1.92 µM (inactive) | 2.56 µM (inactive) | 1.87 µM (inactive) | 6.28 µM (inactive) | 3.25 µM (inactive) | 1.97 µM (inactive) | 2.23 µM (inactive)
11 | N#CC[C@@H](O)COc1ccccc1 | > 100 µM (inactive) | > 100 µM (inactive) | > 100 µM (inactive) | > 100 µM (inactive) |  | > 100 µM (inactive) |  | > 100 µM (inactive) | > 100 µM (inactive) | > 100 µM (inactive) | > 100 µM (inactive) | > 100 µM (inactive) | > 100 µM (inactive) | > 100 µM (inactive) | > 100 µM (inactive) | > 100 µM (inactive) | > 100 µM (inactive) | > 100 µM (inactive) | > 100 µM (inactive) | > 100 µM (inactive)
12 | COc1ccc(/C=C/c2cc(O)cc(OC3OC(CO)C(O)C(O)C3O)c2)cc1O (configuration not stated) | > 100 µM (inactive) | 69.2 µM (inactive) | 14.8 µM (inactive) | 82.4 µM (inactive) |  | > 100 µM (inactive) |  | > 100 µM (inactive) | > 100 µM (inactive) | 42.6 µM (inactive) | > 100 µM (inactive) | > 100 µM (inactive) | > 100 µM (inactive) | > 100 µM (inactive) | > 100 µM (inactive) | > 100 µM (inactive) | > 100 µM (inactive) | 37.8 µM (inactive) | 82.4 µM (inactive) | 49.2 µM (inactive)
13 | CC(C)(C)OC(=O)CC(NC(=O)OC(C)(C)C)C(=O)NC(C(=O)O)C(O)c1ccccc1 (configuration not stated) | > 100 µM (inactive) | > 100 µM (inactive) | > 100 µM (inactive) | 51.4 µM (inactive) |  | > 100 µM (inactive) |  | > 100 µM (inactive) | > 100 µM (inactive) | 50.2 µM (inactive) | > 100 µM (inactive) | 41.7 µM (inactive) | 40.3 µM (inactive) | 77.6 µM (inactive) | 57.9 µM (inactive) | > 100 µM (inactive) | > 100 µM (inactive) | > 100 µM (inactive) | > 100 µM (inactive) | 91.4 µM (inactive)
14 | COc1ccc(C(SCCO)(c2ccccc2)c2ccc(OC)cc2)cc1 | 14.6 µM (inactive) | 11 µM (inactive) | 16 µM (inactive) | 12.6 µM (inactive) |  | 13.2 µM (inactive) |  | 9.31 µM (inactive) | 15.8 µM (inactive) | 10.2 µM (inactive) | 16.3 µM (inactive) | 10.8 µM (inactive) | 15.3 µM (inactive) | 4.46 µM (inactive) | 8.24 µM (inactive) | 11.1 µM (inactive) | 19.5 µM (inactive) | 15.5 µM (inactive) | 5.65 µM (inactive) | 14.5 µM (inactive)
15 | CCCCCCCCCCCCOCCCOP(=O)([O-])OCC[N+](C)(C)C | 10.8 µM (inactive) | 64 µM (inactive) | 30.6 µM (inactive) | 21.1 µM (inactive) |  | 99.1 µM (inactive) | 17 µM (inactive) | 32.8 µM (inactive) | 22.1 µM (inactive) | 30.3 µM (inactive) | 58.5 µM (inactive) | 50.8 µM (inactive) | 63.5 µM (inactive) | 16.1 µM (inactive) | 9.75 µM (inactive) | 43.5 µM (inactive) | 9.04 µM (inactive) | 34.3 µM (inactive) | 23.9 µM (inactive) | 2.18 µM (inactive)
16 | O=C(CCc1cccc(O)c1)NCCCNC(=O)CCc1cccc(O)c1 | > 100 µM (inactive) | > 100 µM (inactive) | > 100 µM (inactive) | > 100 µM (inactive) |  | > 100 µM (inactive) |  | > 100 µM (inactive) | > 100 µM (inactive) | > 100 µM (inactive) | > 100 µM (inactive) | > 100 µM (inactive) | > 100 µM (inactive) | > 100 µM (inactive) | > 100 µM (inactive) | > 100 µM (inactive) | > 100 µM (inactive) | > 100 µM (inactive) | > 100 µM (inactive) | > 100 µM (inactive)
17 | CO[C@H]1C[C@H](O[C@H]2CC[C@@]3(C)[C@H](CC[C@@H]4[C@@H]3CC[C@]3(C)[C@@H](C5=CC(=O)OC5)CC[C@]43O)C2)O[C@H](C)[C@H]1O | < 0.01 µM (active) | < 0.01 µM (active) | < 0.01 µM (active) | < 0.01 µM (active) |  | < 0.01 µM (active) |  | 0.0168 µM (active) | < 0.01 µM (active) | < 0.01 µM (active) | 0.024 µM (active) | < 0.0113 µM (active) | < 0.01 µM (active) | < 0.01 µM (active) | < 0.01 µM (active) | 0.0151 µM (active) | < 0.01 µM (active) | < 0.01 µM (active) | < 0.0111 µM (active) | < 0.01 µM (active)
